Each structure is given as a SMILES string.

Experimental findings from patent publication US20080171783A1, “COMPOSITIONS AND METHODS FOR TREATING HYPERPROLIFERATIVE DISEASE” (Migenix Inc., priority 2006, published 2008) are described below.

The target in the first assay is T1, Calf polymerase alpha (Bos taurus, UniProt A0AAA9TD94).
T1 construct: purchased Replizyme Ltd (Heslington, York, UK)
T1 sequence (A0AAA9TD94 1-1441): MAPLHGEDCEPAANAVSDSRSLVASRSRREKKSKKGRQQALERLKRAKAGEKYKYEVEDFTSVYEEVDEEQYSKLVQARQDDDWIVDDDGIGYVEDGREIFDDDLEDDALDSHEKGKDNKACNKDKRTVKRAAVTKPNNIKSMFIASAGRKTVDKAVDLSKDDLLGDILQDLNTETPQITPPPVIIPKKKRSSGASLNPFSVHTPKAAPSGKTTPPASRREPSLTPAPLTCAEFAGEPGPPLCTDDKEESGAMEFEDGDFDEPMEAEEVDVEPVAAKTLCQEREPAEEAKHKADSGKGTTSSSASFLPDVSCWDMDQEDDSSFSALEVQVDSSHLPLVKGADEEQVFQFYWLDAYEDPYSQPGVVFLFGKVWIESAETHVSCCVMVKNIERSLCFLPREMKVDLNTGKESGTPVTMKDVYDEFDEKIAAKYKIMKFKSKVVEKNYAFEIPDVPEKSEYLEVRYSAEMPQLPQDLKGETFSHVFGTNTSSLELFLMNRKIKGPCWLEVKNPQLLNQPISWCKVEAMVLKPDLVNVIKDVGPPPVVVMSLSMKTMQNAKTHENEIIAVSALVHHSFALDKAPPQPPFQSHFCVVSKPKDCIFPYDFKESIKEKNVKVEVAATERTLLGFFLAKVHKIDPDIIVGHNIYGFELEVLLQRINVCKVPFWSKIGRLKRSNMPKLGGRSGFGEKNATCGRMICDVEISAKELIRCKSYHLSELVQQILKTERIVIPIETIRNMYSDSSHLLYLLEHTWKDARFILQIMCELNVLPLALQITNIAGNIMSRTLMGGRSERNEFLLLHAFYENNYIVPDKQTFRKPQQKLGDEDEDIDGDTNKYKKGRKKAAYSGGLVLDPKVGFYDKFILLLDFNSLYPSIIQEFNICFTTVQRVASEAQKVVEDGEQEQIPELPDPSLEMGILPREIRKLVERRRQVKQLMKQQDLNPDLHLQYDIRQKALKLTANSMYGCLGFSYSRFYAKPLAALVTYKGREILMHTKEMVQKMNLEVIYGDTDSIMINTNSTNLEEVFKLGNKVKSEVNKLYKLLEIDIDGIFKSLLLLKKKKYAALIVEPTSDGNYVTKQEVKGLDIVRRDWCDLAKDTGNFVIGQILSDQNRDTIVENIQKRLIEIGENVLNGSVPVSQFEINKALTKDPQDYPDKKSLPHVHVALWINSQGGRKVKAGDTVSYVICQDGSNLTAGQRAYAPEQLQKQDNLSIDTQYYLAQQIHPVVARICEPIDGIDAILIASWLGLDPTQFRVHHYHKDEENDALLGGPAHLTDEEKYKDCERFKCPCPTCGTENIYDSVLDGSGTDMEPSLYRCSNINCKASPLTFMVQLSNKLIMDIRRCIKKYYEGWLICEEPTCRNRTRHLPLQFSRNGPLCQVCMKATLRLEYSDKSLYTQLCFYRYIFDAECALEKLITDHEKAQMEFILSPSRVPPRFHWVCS
Briefly: Calf polymerase alpha inhibition (Replizyme kit). The format is biochemical. Particulars: at 10 μM, single point screening. The method, then:
Calf polymerase alpha and human polymerase alpha investigations were performed with a kit available from Replizyme Ltd (Heslington, York, UK).
As for `NCCCC[C@@H](NC(=O)Nc1ccc(-c2ccccc2)cc1)C(=O)Nc1ccc(C2CCCCC2)cc1` [Compound 142, (R)-6-AMINO-2-(3-BIPHENYL-4-YL-UREIDO)-HEXANOIC ACID (4-CYCLOHEXYL-PHENYL)-AMIDE], the inhibition at 10 µM stood at 103%.

On to `Cc1ccc(NC(=O)[C@H](CCCCN(C)C)NC(=O)OCC2c3ccccc3-c3ccccc32)cc1` [Compound 124, (S)-(5-DIMETHYLAMINO-1-P-TOLYLCARBAMOYL-PENTYL)-CARBAMIC ACID 9H-FLUOREN-9-YLMETHYL ESTER], for which the “% Inhibition” value worked out at 79%.

`NCCCCN(CC(=O)Nc1cccc2[nH]ccc12)C(=O)Nc1ccc(OCc2ccccc2)cc1` [Compound 281, 2-[1-(4-AMINO-BUTYL)-3-(4-BENZYLOXY-PHENYL)-UREIDO]-N-(1H-INDOL-4-YL)-ACETAMIDE]: the inhibition at 10 µM is 30.5%.

Consider `Cc1ccc(N(C)C(=O)[C@H](CCCCN)NC(=O)OCC2c3ccccc3-c3ccccc32)cc1` [Compound 92, (S)-[5-AMINO-1-(METHYL-P-TOLYL-CARBAMOYL)-PENTYL]-CARBAMIC ACID 9H-FLUOREN-9-YLMETHYL ESTER], for which the “% Inhibition” value came to 56.5%.

On to `Cc1ccc(NC(=O)[C@H](CN)NC(=O)OCC2c3ccccc3-c3ccccc32)cc1` [Compound 103, (S)-(2-AMINO-1-P-TOLYLCARBAMOYL-ETHYL)-CARBAMIC ACID 9H-FLUOREN-9-YLMETHYL ESTER], for which the “% Inhibition” value stood at 72%.

For `NCCCCC[C@H](NC(=O)Nc1ccc(OCc2ccccc2)cc1)C(=O)Nc1ccc(C2CCCCC2)cc1` [Compound 121, (S)-7-AMINO-2-[3-(4-BENZYLOXY-PHENYL)-UREIDO]-HEPTANOIC ACID (4-CYCLOHEXYL-PHENYL)-AMIDE], the inhibition at 10 µM came to 102%.

For the compound `CCNCC(=O)N1CCN(C(=O)OCC2c3ccccc3-c3ccccc32)C(CC(=O)Nc2ccc(C)cc2)C1` (stereo not drawn) [Compound 187, 4-(2-ETHYLAMINO-ACETYL)-2-(P-TOLYLCARBAMOYL-METHYL)-PIPERAZINE-1-CARBOXYLIC ACID 9H-FLUOREN-9-YLMETHYL ESTER], the “% Inhibition” value amounted to 33.5%.

In the case of `NCCCC[C@@H](NC(=O)Nc1ccc(OCc2ccccc2)cc1)C(=O)Nc1ccc(C2CCCCC2)cc1` [Compound 166, (R)-6-AMINO-2-[3-(4-BENZYLOXY-PHENYL)-UREIDO]-HEXANOIC ACID (4-CYCLOHEXYL-PHENYL)-AMIDE], the inhibition at 10 µM came out at 102%.

In the case of `Cc1ccc(NC(=O)[C@H](CCCCN)NC(=O)Nc2ccc(Cc3ccccc3)cc2)cc1` [Compound 74, (S)-6-AMINO-2-[3-(4-BENZYL-PHENYL)-UREIDO]-HEXANOIC ACID P-TOLYLAMIDE], the “% Inhibition” value turned out to be 92%.

Take `Cc1ccc(NC(=O)[C@H](CNC(=O)CN)NC(=O)Nc2ccc(OCc3ccccc3)cc2)cc1` [Compound 268, (S)-3-(2-AMINO-ACETYLAMINO)-2-[3-(4-BENZYLOXY-PHENYL)-UREIDO]-N-P-TOLYL-PROPIONAMIDE]: the “% Inhibition” value turned out to be 62.7%.

Consider `Cc1ccc(NC(=O)C(CCCCN)NC(=O)OCC2c3ccccc3-c3ccccc32)cn1` (stereo not drawn) [Compound 294, [5-AMINO-1-(6-METHYL-PYRIDIN-3-YLCARBAMOYL)-PENTYL]-CARBAMIC ACID 9H-FLUOREN-9-YLMETHYL ESTER], for which the inhibition at 10 µM was 19%.

For `Cc1ccc(NC(=O)[C@H](Cc2ccc(CN)cc2)NC(=O)Nc2ccc(-c3ccccc3)cc2)cc1` [Compound 145, (S)-3-(4-AMINOMETHYL-PHENYL)-2-(3-BIPHENYL-4-YL-UREIDO)-N-P-TOLYL-PROPIONAMIDE], the “% Inhibition” value stood at 102%.

`Cc1ccc(NC(=O)[C@H](CCCCN)NC(=O)Nc2ccc(-c3ccccc3)cc2)cc1` [Compound 40, (S)-6-AMINO-2-(3-BIPHENYL-4-YL-UREIDO)-HEXANOIC ACID P-TOLYLAMIDE]: the “% Inhibition” value turned out to be 95%.

Regarding `Cc1ccc(NC(=O)[C@H](CCCCN)NC(=O)Nc2ccc(OCc3ccncc3)cc2)cc1` [Compound 279, (S)-6-AMINO-2-{3-[4-(PYRIDIN-4-YLMETHOXY)-PHENYL]-UREIDO}-HEXANOIC ACID P-TOLYLAMIDE], the “% Inhibition” value was 15%.

As to `CC(=O)NCCCC[C@H](NC(=O)OCC1c2ccccc2-c2ccccc21)C(=O)Nc1ccc(C)cc1` [Compound 181, (S)-(5-ACETYLAMINO-1-P-TOLYLCARBAMOYL-PENTYL)-CARBAMIC ACID 9H-FLUOREN-9-YLMETHYL ESTER], the “% Inhibition” value amounted to 18.5%.

In the case of `Cc1ccc(NC(=O)[C@H](CCCCN)NC(=O)Nc2ccc(NCc3ccc(F)cc3)cc2)cc1` [Compound 225, (S)-6-AMINO-2-{3-[4-(4-FLUORO-BENZYLAMINO)-PHENYL]-UREIDO}-HEXANOIC ACID P-TOLYLAMIDE], the “% Inhibition” value is on record as 62%.

Regarding `NCCCC[C@H](NC(=O)OCC1c2ccccc2-c2ccccc21)C(=O)N(Cc1ccccc1)C1CCCCC1` [Compound 33, (S)-[5-AMINO-1-(BENZYL-CYCLOHEXYL-CARBAMOYL)-PENTYL]-CARBAMIC ACID 9H-FLUOREN-9-YLMETHYL ESTER], the inhibition at 10 µM worked out at 95%.

`Cc1ccc(NC(=O)[C@H](CCN)NC(=O)OCC2c3ccccc3-c3ccccc32)cc1` [Compound 108, (S)-(3-AMINO-1-P-TOLYLCARBAMOYL-PROPYL)-CARBAMIC ACID 9H-FLUOREN-9-YLMETHYL ESTER]: the “% Inhibition” value was found to be 84%.

Consider `Cc1ccc(NC(=O)[C@H](CCCCN)NC(=O)OCC2c3ccccc3-c3ccccc32)cc1` [Compound 20, (S)-(5-AMINO-1-P-TOLYLCARBAMOYL-PENTYL)-CARBAMIC ACID 9H-FLUOREN-9-YLMETHYL ESTER], for which the inhibition at 10 µM was 18%.

As to `Cc1cc2cc(NC(=O)[C@H](CCCCN)NC(=O)Nc3ccc(-c4ccccc4)cc3)ccc2[nH]1` [Compound 94, (S)-6-AMINO-2-(3-BIPHENYL-4-YL-UREIDO)-HEXANOIC ACID (2-METHYL-1H-INDOL-5-YL)-AMIDE], the inhibition at 10 µM turned out to be 93%.

With `Cc1ccc(NC(=O)[C@H](CCCCN)NC(=O)Nc2ccc(OCc3cccnc3)cc2)cc1` [Compound 261, (S)-6-AMINO-2-{3-[4-(PYRIDIN-3-YLMETHOXY)-PHENYL]-UREIDO}-HEXANOIC ACID P-TOLYLAMIDE], the “% Inhibition” value stood at 55%.

As for `NCCCC[C@H](NC(=O)OCC1c2ccccc2-c2ccccc21)C(=O)NC1CCCCC1` [Compound 22, (S)-(5-AMINO-1-CYCLOHEXYLCARBAMOYL-PENTYL)-CARBAMIC ACID 9H-FLUOREN-9-YLMETHYL ESTER], the inhibition at 10 µM is 14%.

For `Cc1ccc(NC(=O)[C@H](CCCCN)NC(=O)Nc2ccc(OCc3ccccc3F)cc2)cc1` [Compound 248, (S)-6-AMINO-2-{3-[4-(2-FLUORO-BENZYLOXY)-PHENYL]-UREIDO}-HEXANOIC ACID P-TOLYLAMIDE], the “% Inhibition” value amounted to 61%.

As for `Cc1ccc(NC(=O)[C@H](CCCCN)NC(=O)CC2c3ccccc3-c3ccccc32)cc1` [Compound 53, (S)-6-AMINO-2-(2-9H-FLUOREN-9-YL-ACETYLAMINO)-HEXANOIC ACID P-TOLYLAMIDE], the “% Inhibition” value is on record as 22%.

Regarding `NCCCC[C@H](NC(=O)OCC1c2ccccc2-c2ccccc21)C(=O)NCc1ccccc1` [Compound 21, (S)-(5-AMINO-1-BENZYLCARBAMOYL-PENTYL)-CARBAMIC ACID 9H-FLUOREN-9-YLMETHYL ESTER], the inhibition at 10 µM is 12%.

In the case of `Cc1ccc(NC(=O)[C@H](CCCCN)NC(=O)C2c3ccccc3-c3ccccc32)cc1` [Compound 52, (S)-9H-FLUORENE-9-CARBOXYLIC ACID (5-AMINO-1-P-TOLYLCARBAMOYL-PENTYL)-AMIDE], the “% Inhibition” value stood at 13%.

The assay is the same for the next values; noted with them: dose response.
For the compound `NCCCCN(CC(=O)Nc1cccc2[nH]ccc12)C(=O)Nc1ccc(OCc2ccccc2)cc1` [Compound 281, 2-[1-(4-AMINO-BUTYL)-3-(4-BENZYLOXY-PHENYL)-UREIDO]-N-(1H-INDOL-4-YL)-ACETAMIDE], the concentration for half-maximal inhibition (IC50) was determined as 9.2 µM.

Broadly, the inhibition is the change of the read-out against control, counted positive when it falls. For orientation: % Inhibition means the change of the read-out against control, counted positive when it falls. Broadly, the IC50 is the concentration that gives 50% inhibition. Read a high IC50 as weaker potency in that assay.
